Measured values from patent US4746675A, “External pharmaceutical composition” (Teijin Limited, priority 1983, dated 1988).

Experiments:
carrageenan edema = carrageenan edema inhibiting effect of betamethasone valerate ointments; assay type: in vivo, rat; settings: Table 5, betamethasone valerate ointment with penetration enhancer
Method: An ointment was prepared from 0.15 part by weight of betamethasone valerate, 9.85 parts by weight of compound (168) and 90 parts by weight of the hydrophilic ointment.
In accordance with the method of R. Passarella et al. [Argneim. Forsch 30, (I), Nr. 4, 647-651 (1980)], the carrageenan edema inhibiting effect of the above ointment was examined. Specifically, 0.1 ml of a 1% carrageenan suspension in 0.9% NaCl solution was injected into the tip of the right leg of a rat (body weight 150-175 g). The foot volume was measured immediately after administration of carrageenan and 3, 5, and 6 hours after the administration by means of a mercury displacement device. 0.5, 1 and 2 hours after the administration of carrageenan, 100 mg of the ointment was well […] into each of the sites which underwent inflammation.
Various ointments were prepared from 0.15 part by weight of betamethasone valerate, […] of the various penetration enhancers shown in Table 5, and 85 parts by weight of the hydrophilic ointment, and tested in the same way as in Example 23.

[1] = test system: eye (cornea, iris, conjunctiva); test: primary eye irritation (Draize) in rabbits; assay type: in vivo, white native male rabbits; settings: for Primary irritation score, Conjunctiva / Primary irritation score, Cornea / Primary irritation score, Iris / Primary irritation score, Total: average of three rabbits
Method: enhancers of this invention shown in Table 17 was applied dropwise to one eye of white native male rabbits (body weight 2.0 to 3.0 kg; 3 per group) which, it had been ascertained, were free from any trouble at the cornea, iris and conjunctiva. Nothing was applied to the other eye. Thus, irritation of the absorption aid to the mucous membrane of the eyes were examined, and scores were calculated in accordance with the Draize's eye irritation evaluating method [Association of Foods, "Drugs and Cosmetics" (1957)].
As a control, sodium laurylsulfate, a kind of surface-active agent, was evaluated in the same way, and the results are also shown in Table 17.

Compound: CCCCCCOCC(O)COC(=O)[C@@H]1CCC(=O)N1 (some centres unmarked) [Compound (104), 3-hexyloxy-2-hydroxy-1-pyroglutamyloxypropane]
- Percentage inhibition vs. control (carrageenan edema; 3 hrs): 18.3%
- Percentage inhibition vs. control (carrageenan edema; 5 hrs): 35.3%
- Percentage inhibition vs. control (carrageenan edema; 6 hrs): 37.0%

Compound: CCCCCCCCCCCCCCCCCCOCC(O)COC(=O)[C@@H]1CCC(=O)N1 (some centres unmarked) [Compound (112), 2-hydroxy-3-octadecyloxy-1-pyroglutamyloxypropane]
- Percentage inhibition vs. control (carrageenan edema; 3 hrs): 17.8%
- Percentage inhibition vs. control (carrageenan edema; 5 hrs): 32.2%
- Percentage inhibition vs. control (carrageenan edema; 6 hrs): 33.0%

Compound: CCCCCCCCOCC(COC(=O)[C@@H]1CCC(=O)N1)OCCCCCCCC (some centres unmarked) [Compound (122), 2,3-dioctyloxy-1-pyroglutamyloxypropane]
- Percentage inhibition vs. control (carrageenan edema; 3 hrs): 20.2%
- Percentage inhibition vs. control (carrageenan edema; 5 hrs): 36.5%
- Percentage inhibition vs. control (carrageenan edema; 6 hrs): 38.3%

Compound: CCCCCCCCCCCCCCCCCCOCC(COC(=O)[C@@H]1CCC(=O)N1)OCCCCCCCCCCCCCCCCCC (some centres unmarked) [Compound (124), 2,3-dioctadecyloxy-1-pyroglutamyloxypropane]
- Percentage inhibition vs. control (carrageenan edema; 3 hrs): 19.5%
- Percentage inhibition vs. control (carrageenan edema; 5 hrs): 37.8%
- Percentage inhibition vs. control (carrageenan edema; 6 hrs): 36.6%

Compound: CCCCCCCC=CCCCCCCCCOCC(COC(=O)[C@@H]1CCC(=O)N1)OCCCCCCCCC=CCCCCCCC (some centres unmarked) [Compound (142), 2,3-di(9-heptadecenyloxy)-1-pyroglutamyloxypropane]
- Percentage inhibition vs. control (carrageenan edema; 3 hrs): 16.5%
- Percentage inhibition vs. control (carrageenan edema; 5 hrs): 34.6%
- Percentage inhibition vs. control (carrageenan edema; 6 hrs): 34.0%

Compound: CCCCC(=O)OCC(O)COC(=O)[C@@H]1CCC(=O)N1 (some centres unmarked) [Compound (156), 2-hydroxy-3-valeryloxy-1-pyroglutamyloxypropane]
- Percentage inhibition vs. control (carrageenan edema; 3 hrs): 18.6%
- Percentage inhibition vs. control (carrageenan edema; 5 hrs): 35.1%
- Percentage inhibition vs. control (carrageenan edema; 6 hrs): 34.3%

Compound: CCCCC(=O)OCC(COC(=O)[C@@H]1CCC(=O)N1)OC(=O)CCCC (some centres unmarked) [Compound (158), 2,3-divaleryloxy-1-pyroglutamyloxypropane]
- Percentage inhibition vs. control (carrageenan edema; 3 hrs): 18.0%
- Percentage inhibition vs. control (carrageenan edema; 5 hrs): 36.0%
- Percentage inhibition vs. control (carrageenan edema; 6 hrs): 36.1%

Compound: CCCCCCCC(=O)OCC(O)COC(=O)[C@@H]1CCC(=O)N1 (some centres unmarked) [Compound (160), 2-hydroxy-3-octanoyloxy-1-pyroglutamyloxypropane]
- Percentage inhibition vs. control (carrageenan edema; 3 hrs): 17.7%
- Percentage inhibition vs. control (carrageenan edema; 5 hrs): 30.8%
- Percentage inhibition vs. control (carrageenan edema; 6 hrs): 29.9%

Compound: CCCCCCCC/C=C\CCCCCCCC(=O)OCC(COC(=O)C1CCC(=O)N1)OC(=O)CCCCCCC/C=C\CCCCCCCC (centres unmarked) [Compound (170), 2,3,-dioleoyloxy-1-pyroglutamyloxypropane]
- Percentage inhibition vs. control (carrageenan edema; 3 hrs): 17.9%
- Percentage inhibition vs. control (carrageenan edema; 5 hrs): 33.4%
- Percentage inhibition vs. control (carrageenan edema; 6 hrs): 36.2%

Compound: CCC=CC(=O)OCC(O)COC(=O)[C@@H]1CCC(=O)N1 (some centres unmarked) [Compound (184), 2-hydroxy-3(2-pentenoyloxy)-1-pyroglutamyloxypropane]
- Percentage inhibition vs. control (carrageenan edema; 3 hrs): 19.0%
- Percentage inhibition vs. control (carrageenan edema; 5 hrs): 35.3%
- Percentage inhibition vs. control (carrageenan edema; 6 hrs): 35.5%

Compound: CCCCCCCCCCC=CCCCCCCCCCC(=O)OCC(O)COC(=O)[C@@H]1CCC(=O)N1 (some centres unmarked) [Compound (192), 3-(11-docosenoyloxy)-2-hydroxy-1-pyroglutamyloxypropane]
- Percentage inhibition vs. control (carrageenan edema; 3 hrs): 19.5%
- Percentage inhibition vs. control (carrageenan edema; 5 hrs): 36.7%
- Percentage inhibition vs. control (carrageenan edema; 6 hrs): 30.8%

Compound: CC1(C)OCC(COC(=O)C2CCC(=O)N2)O1 (centres unmarked) [Compound (202), 2,3-dioxo-(dimethyl)methylene-1-pyroglutamyloxypropane]
- Percentage inhibition vs. control (carrageenan edema; 3 hrs): 17.7%
- Percentage inhibition vs. control (carrageenan edema; 5 hrs): 39.6%
- Percentage inhibition vs. control (carrageenan edema; 6 hrs): 36.1%

Compound: CCCCCCCCCCCCCCCC1OCC(COC(=O)C2CCC(=O)N2)O1 (centres unmarked) [Compound (220), 2,3-dioxo-(pentadecyl)methylene-1-pyroglutamyloxypropane]
- Percentage inhibition vs. control (carrageenan edema; 3 hrs): 16.6%
- Percentage inhibition vs. control (carrageenan edema; 5 hrs): 29.7%
- Percentage inhibition vs. control (carrageenan edema; 6 hrs): 29.8%

Compound: CCCCCCCCCCCCOS(=O)(=O)[O-].[Na+] [Sodium Laurylsulfate, sodium laurylsulfate, reference compound]
- Primary irritation score, Conjunctiva ([1]; 0.1% soln, 1 hour): 4.0
- Primary irritation score, Cornea ([1]; 0.1% soln, 1 hour): 0
- Primary irritation score, Iris ([1]; 0.1% soln, 1 hour): 0
- Primary irritation score, Total ([1]; 0.1% soln, 1 hour): 4.0
- Primary irritation score, Conjunctiva ([1]; 0.1% soln, 3 hours): 4.0
- Primary irritation score, Cornea ([1]; 0.1% soln, 3 hours): 0
- Primary irritation score, Iris ([1]; 0.1% soln, 3 hours): 0
- Primary irritation score, Total ([1]; 0.1% soln, 3 hours): 4.0
- Primary irritation score, Conjunctiva ([1]; 0.1% soln, 6 hours): 0
- Primary irritation score, Cornea ([1]; 0.1% soln, 6 hours): 0
- Primary irritation score, Iris ([1]; 0.1% soln, 6 hours): 0
- Primary irritation score, Total ([1]; 0.1% soln, 6 hours): 0
- Primary irritation score, Conjunctiva ([1]; 0.1% soln, 24 hours): 0
- Primary irritation score, Cornea ([1]; 0.1% soln, 24 hours): 0
- Primary irritation score, Iris ([1]; 0.1% soln, 24 hours): 0
- Primary irritation score, Total ([1]; 0.1% soln, 24 hours): 0
- Primary irritation score, Conjunctiva ([1]; 0.1% soln, 48 hours): 0
- Primary irritation score, Cornea ([1]; 0.1% soln, 48 hours): 0
- Primary irritation score, Iris ([1]; 0.1% soln, 48 hours): 0
- Primary irritation score, Total ([1]; 0.1% soln, 48 hours): 0
- Primary irritation score, Conjunctiva ([1]; 0.1% soln, 72 hours): 0
- Primary irritation score, Cornea ([1]; 0.1% soln, 72 hours): 0
- Primary irritation score, Iris ([1]; 0.1% soln, 72 hours): 0
- Primary irritation score, Total ([1]; 0.1% soln, 72 hours): 0
- Primary irritation score, Conjunctiva ([1]; 0.1% soln, 96 hours): 0
- Primary irritation score, Cornea ([1]; 0.1% soln, 96 hours): 0
- Primary irritation score, Iris ([1]; 0.1% soln, 96 hours): 0
- Primary irritation score, Total ([1]; 0.1% soln, 96 hours): 0
- Primary irritation score, Conjunctiva ([1]; 0.1% soln, 168 hours): 0
- Primary irritation score, Cornea ([1]; 0.1% soln, 168 hours): 0
- Primary irritation score, Iris ([1]; 0.1% soln, 168 hours): 0
- Primary irritation score, Total ([1]; 0.1% soln, 168 hours): 0
- Primary irritation score, Conjunctiva ([1]; 2.4% soln, 1 hour): 13.3
- Primary irritation score, Cornea ([1]; 2.4% soln, 1 hour): 0
- Primary irritation score, Iris ([1]; 2.4% soln, 1 hour): 5.0
- Primary irritation score, Total ([1]; 2.4% soln, 1 hour): 18.3
- Primary irritation score, Conjunctiva ([1]; 2.4% soln, 3 hours): 12.7
- Primary irritation score, Cornea ([1]; 2.4% soln, 3 hours): 0
- Primary irritation score, Iris ([1]; 2.4% soln, 3 hours): 0
- Primary irritation score, Total ([1]; 2.4% soln, 3 hours): 12.7
- Primary irritation score, Conjunctiva ([1]; 2.4% soln, 6 hours): 11.3
- Primary irritation score, Cornea ([1]; 2.4% soln, 6 hours): 0
- Primary irritation score, Iris ([1]; 2.4% soln, 6 hours): 0
- Primary irritation score, Total ([1]; 2.4% soln, 6 hours): 11.3
- Primary irritation score, Conjunctiva ([1]; 2.4% soln, 24 hours): 8.0
- Primary irritation score, Cornea ([1]; 2.4% soln, 24 hours): 0
- Primary irritation score, Iris ([1]; 2.4% soln, 24 hours): 0
- Primary irritation score, Total ([1]; 2.4% soln, 24 hours): 8.0
- Primary irritation score, Conjunctiva ([1]; 2.4% soln, 48 hours): 4.0
- Primary irritation score, Cornea ([1]; 2.4% soln, 48 hours): 0
- Primary irritation score, Iris ([1]; 2.4% soln, 48 hours): 0
- Primary irritation score, Total ([1]; 2.4% soln, 48 hours): 4.0
- Primary irritation score, Conjunctiva ([1]; 2.4% soln, 72 hours): 2.7
- Primary irritation score, Cornea ([1]; 2.4% soln, 72 hours): 0
- Primary irritation score, Iris ([1]; 2.4% soln, 72 hours): 0
- Primary irritation score, Total ([1]; 2.4% soln, 72 hours): 2.7
- Primary irritation score, Conjunctiva ([1]; 2.4% soln, 96 hours): 2.0
- Primary irritation score, Cornea ([1]; 2.4% soln, 96 hours): 0
- Primary irritation score, Iris ([1]; 2.4% soln, 96 hours): 0
- Primary irritation score, Total ([1]; 2.4% soln, 96 hours): 2.0
- Primary irritation score, Conjunctiva ([1]; 2.4% soln, 168 hours): 0.7
- Primary irritation score, Cornea ([1]; 2.4% soln, 168 hours): 0
- Primary irritation score, Iris ([1]; 2.4% soln, 168 hours): 0
- Primary irritation score, Total ([1]; 2.4% soln, 168 hours): 0.7
- eye irritation (in words) ([1]; rabbit, in vivo): fairly strong irritation
